Measurements as given in BindingDB's records for doi:10.1016/S0960-894X(03)00095-7 (Abbott Laboratories, 2003).

Tests used:
[1] = molecular target: Protein farnesyltransferase subunit beta/geranylgeranyltransferase type-1 subunit alpha (Bos taurus, UniProt P29702+P49355); experiment: FTase Activity Assay; details: pH 7.5; 37 °C
Protocol: The in vitro activity of compounds inhibiting FTase was determined by measuring the transfer of [3H]-FPP to substrate Ha-Ras-CVLS. The incorporated radioactivity was quantified by scintillation counting.

[2] = molecular target: Geranylgeranyl transferase type-1 subunit beta/Protein farnesyltransferase/geranylgeranyltransferase type-1 subunit alpha (Bos taurus, UniProt P29702+Q5EAD5); experiment: GGTase-I Activity Assay; details: pH 7.5; 37 °C
Protocol: The in vitro activity of compounds inhibiting GGTase-1 was determined by measuring the transfer of [3H]-geranylgeranylpyrophosphate to substrate Ha-Ras-CVLL. The incorporated radioactivity was quantified by scintillation counting.

IC50 [1]: 0.92 nM
IC50 [2]: 1600 nM
Structure (SMILES): CN(Cc1ccc(C#N)cc1)[C@H](Cc1cncn1C)C(=O)N1CCC(C#N)=C(c2cccc3ccccc23)C1 [1-[(2R)-2-{[(4-cyanophenyl)methyl](methyl)amino}-3-(1-methyl-1H-imidazol-5-yl)propanoyl]-5-(naphthalen-1-yl)-1,2,3,6-tetrahydropyridine-4-carbonitrile]
